These results are taken from patent publication US5468754A, “11,7 substituted camptothecin derivatives and formulations of 11,7 substituted camptothecin derivatives and methods for uses thereof” (priority 1994, dated 1995).

As usually defined, the solubility is how much of the substance goes into solution per volume.

Like-named read-outs stand apart in the source and are kept apart here.

The conditions of data set [1]: cited from earlier work.
A further data set in a line: Solubility in DMA or DMI. The data set is classed as physicochemical. The conditions noted are these: organic solvent or mixture, in presence of pharmaceutically acceptable acid. The procedure:
Yet another embodiment of this invention for oral administration to a patient with cancer is 11,7-HECPT or 11,7-HMCPT dissolved in dimethylisosorbide (DMI) or dimethylacetamide (DMA) in the presence of a pharmaceutically acceptable acid. More specifically, approximately 10 mg of 11,7-HECPT or 11,7-HMCPT can be dissolved in each milliliter of DMA. However, only approximately 5.0 mg of 11,7-HECPT or 11,7-HMCPT can be dissolved in each milliliter of DMI.

For data set [2] the following is noted: cited from earlier work. This is another data set of the same source.
For data set [3] the following is noted: cited from earlier work. This is another data set of the same source.
The test system of a further data set is topoisomerase I. The conditions noted are these: cited from earlier work.
The conditions of data set [4]: compared with parent compound camptothecin; cited from earlier work.
For data set [5] the following is noted: similar form; vs intravenous administration (U.S. Pat. No. 4,713,246); cited from earlier work.
Data set [6] deals with Topoisomerase I, purified from calf thymus. The conditions noted are these: cited from earlier work.
The conditions of data set [7]: more toxic than sodium camptothecin, mice; cited from earlier work.
The next data set relates to L1210 cells. The conditions noted are these: cited from earlier work.
Data set [8] deals with Topoisomerase I, purified from human colon carcinoma cells. The settings on record: cited from earlier work.
Another data set relates to P388 tumor. The conditions noted are these: intermittent bolus (days 1, 5, and 9), intraperitoneal; mice; cited from earlier work.
The conditions of data set [9]: Kaneda et al.; cited from earlier work.
For data set [10] the following is noted: in vivo; cited from earlier work.
For the next data set, the system named is MOLT3 cells. The settings on record: more potent than CPT-11; cited from earlier work.
In data set [11] the test system is topoisomerase I enzyme of P388 cells. The conditions noted are these: greater than CPT-11; cited from earlier work.
For data set [12] the following is noted: above 30 mg/m^2/d CPT-11, 5 day continuous infusion; cited from earlier work.
Setting [13] is: dimethylacetamide, read-out: solubility in DMA.
The mark [14] stands for this setting: dimethylisosorbide, read-out: solubility in DMI.

As to `CC[C@@]1(O)C(=O)OCc2c1cc1n(c2=O)Cc2c-1nc1cc(O)ccc1c2OC` [11,7-HMCPT, 11-hydroxy-7-methoxy camptothecin], in data set [1], the water solubility result is on record as “poor water solubility”. For the same compound, the solubility in “Solubility in DMA or DMI” (setting [13]) was ~10000 µg/mL; in the data set “Solubility in DMA or DMI” (setting [14]), ~5000 µg/mL. The antitumor activity result in data set [2] (previously demonstrated) was “previously demonstrated antitumor activity”.
Turning to `CC[C@@](O)(C(=O)O)c1cc2n(c(=O)c1CO)Cc1cc3ccccc3nc1-2` [sodium camptothecin], the Toxicity result in data set [3] (sodium camptothecin, Phase II studies) is “unpredictable and severe myelosuppression, gastrointestinal toxicity, hemorrhagic cystitis, and alopecia”. Besides, in data set [3] (sodium camptothecin, clinical trials), the antitumor activity entry is reported as “lack of significant anti-tumor activity”.
In the case of `CCc1c2c(nc3cc(O)ccc13)-c1cc3c(c(=O)n1C2)COC(=O)[C@]3(O)CC` [11,7-HECPT, 11-hydroxy-7-ethyl camptothecin], the solubility in the data set “Solubility in DMA or DMI” (setting [13]) is ~10000 µg/mL; in “Solubility in DMA or DMI” (setting [14]) it was ~5000 µg/mL. Moreover, in data set [2] (previously demonstrated), the antitumor activity result is listed as “previously demonstrated antitumor activity”.
As to `CC[C@@]1(O)C(=O)OCc2c1cc1n(c2=O)Cc2cc3c(CN(C)C)c(O)ccc3nc2-1` [topotecan], the antitumor activity entry in data set [2] (compared with parent compound camptothecin) is “retain the significant antitumor activity of the parent compound”. Further, in the data set on topoisomerase I, the “Topo I inhibition” value is given as “Topo I inhibitor”. Besides, in data set [4], the Toxicity entry is “less sporadic toxicities”.
Turning to `COc1cc([C@@H]2c3cc4c(cc3[C@@H](O[C@@H]3O[C@@H]5CO[C@@H](C)O[C@H]5[C@H](O)[C@H]3O)[C@H]3COC(=O)[C@H]23)OCO4)cc(OC)c1O` [etoposide], the “bioavailability following oral administration” value in [5] is given as “substantially equivalent to that achieved by intravenous administration”.
Take `CC[C@@]1(O)C(=O)OCc2c1cc1n(c2=O)Cc2cc3cc4c(cc3nc2-1)OCO4` [10,11-methylene dioxycamptothecin]: the water solubility entry in [1] is listed as “relatively insoluble in water”. Further, in data set [2] (preclinical studies), the “activity in preclinical studies” value is reported as “very active in preclinical studies”.
Take `CC[C@@]1(O)C(=O)OCc2c1cc1n(c2=O)Cc2cc3ccccc3nc2-1` [Camptothecin, camptothecin]: the “inhibition of Topoisomerase I” value in data set [6] and in data set [8] was “inhibited” in each case. Besides, in [1], the water solubility result is recorded as “highly water insoluble”. In addition, the Toxicity result in [3] (camptothecin, Phase I trials, early 1970's) was “unpredictable myelosuppression and hemorrhagic cystitis”. Besides, the antitumor activity result in data set [3] (camptothecin, Phase I trials) is listed as “some antitumor activity”. Also, the “toxicity of lactone form relative to sodium camptothecin” value in data set [7] is on record as 10 -fold. For the same compound, the “DNA strand breaks in L1210 cells” value in the data set with L1210 cells is “an increase in unexplained protein-free breaks”. Besides, the “stabilization of the cleavable complex” value in the data set on topoisomerase I (closed lactone vs non-lactone form) is recorded as “only the closed lactone form of camptothecin helps stabilize the cleavable complex”.
On to `CC[C@@]1(O)C(=O)OCc2c1cc1n(c2=O)Cc2cc3ccc(O)cc3nc2-1` [11-HCPT, 11-hydroxy camptothecin], for which the antitumor activity entry in [2] (previously demonstrated) is “previously demonstrated antitumor activity”.
As for `CCc1c2c(nc3ccc(O)cc13)-c1cc3c(c(=O)n1C2)COC(=O)[C@]3(O)CC` [SN38, 10-hydroxy-7-ethyl camptothecin], the “anti-tumor activity compared to CPT-11 in vivo” value in the data set on P388 tumor is “little anti-tumor activity compared to CPT-11”. Besides, the “plasma concentration of SN38 in mice” value in [9] is listed as “maintained longer after CPT-11 administration than after treatment with SN38”. For the same compound, the “inhibition of Topoisomerase I” value in [6] and in [8] was “inhibited” throughout. The water solubility result in data set [1] is reported as “poorly soluble in water”. In [10], the “overall fractional concentration of the lactone species” value is reported as “fairly constant through a range of doses”. For the same compound, in the data set with MOLT3 cells, the “potency in generating single-strand DNA breaks relative to CPT-11” value was “approximately 1000 -fold”. Also, the “inhibitory activity against topoisomerase I relative to CPT-11” value in data set [11] was 3600 -fold. The “CpMax of SN38 on increasing CPT-11 dose” value in data set [12] was “decrease in the CpMax of SN38”.
